pEC50: −log10 of the molar value.

One may read the pEC50 as the negative decadic logarithm of the EC50, by convention in mol/L.

In the test the target is T1, Protein mono-ADP-ribosyltransferase TIPARP (Homo sapiens, UniProt Q7Z3E1).
T1 sequence (Q7Z3E1 whole entry): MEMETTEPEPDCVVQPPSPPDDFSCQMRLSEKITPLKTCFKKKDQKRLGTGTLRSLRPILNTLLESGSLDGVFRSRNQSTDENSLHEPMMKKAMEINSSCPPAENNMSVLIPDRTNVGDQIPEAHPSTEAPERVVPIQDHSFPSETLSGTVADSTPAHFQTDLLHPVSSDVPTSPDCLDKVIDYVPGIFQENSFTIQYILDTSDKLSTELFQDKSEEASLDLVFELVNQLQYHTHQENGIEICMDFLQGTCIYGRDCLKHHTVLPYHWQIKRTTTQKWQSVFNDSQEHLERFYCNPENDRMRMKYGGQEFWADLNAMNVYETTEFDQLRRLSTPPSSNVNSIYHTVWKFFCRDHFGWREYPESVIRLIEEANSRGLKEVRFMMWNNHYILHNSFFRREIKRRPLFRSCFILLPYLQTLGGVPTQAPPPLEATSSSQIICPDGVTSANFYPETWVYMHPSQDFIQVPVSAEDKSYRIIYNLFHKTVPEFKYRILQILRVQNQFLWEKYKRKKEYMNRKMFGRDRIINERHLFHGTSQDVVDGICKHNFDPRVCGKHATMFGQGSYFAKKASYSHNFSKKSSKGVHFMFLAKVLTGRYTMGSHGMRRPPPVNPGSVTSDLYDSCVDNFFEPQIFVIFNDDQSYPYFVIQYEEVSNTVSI
Kind of test: Inhibition of PARP7 in human NCI-H1373 cells assessed as increase in STAT1 phosphorylation at Tyr701 residue incubated for 48 hrs by LANCE Ultra TR-FRET assay. It counts as cell-based. Background: Time-resolved FRET reads energy transfer from a long-lived donor to a nearby acceptor.
As to `O=C(CCCN(c1ccccc1)c1cc(C(F)(F)F)c(=O)[nH]n1)N1CCN(c2ncc(C(F)(F)F)cn2)CC1`, the pEC50 was 7.13.

On to `CN(CCCC(=O)N1CCN(c2ncc(C(F)(F)F)cn2)CC1)c1cc(C(F)(F)F)c(=O)[nH]n1`, for which the pEC50 is 7.12.

Regarding `O=C(CC[C@@H]1CCCCN1c1cc(C(F)(F)F)c(=O)[nH]n1)N1CCN(c2ncc(C(F)(F)F)cn2)CC1`, the pEC50 is 6.76.

Consider `O=C(CCCCc1cc(C(F)(F)F)c(=O)[nH]n1)N1CCN(c2ncc(C(F)(F)F)cn2)CC1`, for which the pEC50 was 7.22.

With `O=C([C@@H](O)CCNc1cc(C(F)(F)F)c(=O)[nH]n1)N1CCN(c2ncc(C(F)(F)F)cn2)CC1`, the pEC50 is 7.67.

As for `O=C(CCC1Cc2ccccc2N1c1cc(C(F)(F)F)c(=O)[nH]n1)N1CCN(c2ncc(C(F)(F)F)cn2)CC1` (centres undefined), the pEC50 is 6.75.

As for `CCN(CCCC(=O)N1CCN(c2ncc(C(F)(F)F)cn2)CC1)c1cc(C(F)(F)F)c(=O)[nH]n1`, the pEC50 is 7.29.

In the case of `O=C(CC[C@@H]1CCCN1c1cc(C(F)(F)F)c(=O)[nH]n1)N1CCN(c2ncc(C(F)(F)F)cn2)CC1`, the pEC50 was 8.03.

With `O=C(CCCNc1cc(C(F)(F)F)c(=O)[nH]n1)N1CCN(c2ncc(C(F)(F)F)cn2)CC1`, the pEC50 was 7.14.

For the origin of these results see ChEMBL document CHEMBL5365515, “PARP7 Inhibition: A Promising Pathway to Advancements in Cancer Therapy” (ACS Med Chem Lett, 2023).
